# Laboratory results: patent US7705030B2, “Amino-5-(5-membered)hetero-arylimidazolone compounds and the use thereof for β-secretase modulation” (Wyeth LLC, priority 2005, dated 2010)
# Counter-ions that a name gives are not always drawn.
# Experiments:
# human BACE1 = human BACE1 (Homo sapiens, UniProt P56817); assay: Fluorescent kinetic assay: Evaluation of BACE-1 Binding Affinity of Test Compounds; assay type: biochemical; details: 10 nM enzyme, 25 μM substrate WABC-6, 50 mM Na-Acetate pH 4.5, room temperature
# Sequence of human BACE1 (P56817 46-501): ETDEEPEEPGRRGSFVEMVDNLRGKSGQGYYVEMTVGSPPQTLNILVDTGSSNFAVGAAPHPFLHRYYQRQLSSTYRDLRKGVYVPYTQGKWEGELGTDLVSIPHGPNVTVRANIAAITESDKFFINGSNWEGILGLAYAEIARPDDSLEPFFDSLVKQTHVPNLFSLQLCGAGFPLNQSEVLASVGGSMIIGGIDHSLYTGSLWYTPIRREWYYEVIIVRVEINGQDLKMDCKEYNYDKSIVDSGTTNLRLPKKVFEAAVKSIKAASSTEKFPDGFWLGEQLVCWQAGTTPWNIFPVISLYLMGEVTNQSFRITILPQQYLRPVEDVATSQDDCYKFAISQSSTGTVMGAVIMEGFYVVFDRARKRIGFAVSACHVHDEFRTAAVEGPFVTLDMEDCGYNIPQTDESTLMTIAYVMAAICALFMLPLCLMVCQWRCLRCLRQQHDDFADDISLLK
# Description: Evaluation of BACE-1 Binding Affinity of Test Compounds
# Fluorescent Kinetic Assays
# Final Assay Conditions: 10 nM human BACE1 (or 10 nM Murine BACE1, 1.5 nM human BACE2), 25 μM substrate (WABC-6, MW 1549.6, from AnaSpec), Buffer: 50 mM Na-Acetate, pH 4.5, 0.05% CHAPS, 25% PBS, room temperature. Na-Acetate was from Aldrich, Cat.# 24, 124-5, CHAPS was from Research Organics, Cat. # 1304C 1×, PBS was from Mediatech (Cellgro), Cat# 21-031-CV, peptide substrate Abz[…]pa was from AnaSpec, Peptide Name: WABC-6 Determination of stock substrate (Abz[…]pa) concentration: ˜25 mM stock solution is made in DMSO using the peptide weight and MW, and diluted to ˜25 μM (1:1000) in 1×PBS. Concentration is determined by absorbance at 354 nm using an extinction coefficient ε of 18172 M^−1 cm^−1, the concentration of stock substrate is corrected, and the substrate stock stored in small aliquots in −80° C. [Substrate Stock]=ABS^354 nm*10^6/18172 (in […]) The extinction coefficient ε^354 nm was adapted from TACE peptide substrate, which had the same quencher-fluorophore pair.
# Determination of Stock Enzyme Concentration: the stock concentration of each enzyme is determined by absorbance at 280 nm using an ε of 64150 M^−1 cm^−1 for hBACE1 and MuBACE1, 62870 M^−1 cm^−1 for hBACE2 in 6 M Guanidinium Hydrochloride (from Research Organics, Cat. # 5134G-2), pH ˜6. The extinction coefficient ε^280 nm for each enzyme was calculated based on known amino acid composition and published extinction coefficients for Trp ([…]) and Tyr ([…]) residues (Anal. Biochem. 182, 319-326).
# Dilution and mixing steps: total reaction volume: 100 μL
# 2× inhibitor dilutions in buffer A(66.7 mM Na-Acetate, pH 4.5, 0.0667% CHAPS) were prepared,
# 4× enzyme dilution in buffer A(66.7 mM Na-Acetate, pH 4.5, 0.0667% CHAPS) were prepared,
# 100 μM substrate dilution in 1×PBS was prepared, and
# 50 μL 2× Inhibitor, 25 μL 100 μM substrate are added to each well of 96-well plate (from DYNEX Technologies, VWR #: 11311-046), immediately followed by 25 μL 4× enzyme (added to the inhibitor and substrate mix), and the fluorescence readings are initiated.
# Fluorescence Readings: Readings at λex 320 nm and λem 420 nm are taken every 40 sec for 30 min at room temperature and the linear slope for substrate cleavage rate (vi) determined.
# Testing at least 10 different inhibitor concentrations is preferred.
compound,measurement,setting,value
"CCCOc1cccc(C2(c3cc(C(=O)CC)n(CC)c3)N=C(N)N(C)C2=O)c1 (stereo not shown) [Example 132, 2-Amino-5-(1-ethyl-5-propionyl-1H-pyrrol-3-yl)-3-methyl-5-(3-propoxyphenyl)-3,5-dihydro-4H-imidazol-4-one]",IC50,human BACE1,10 to 100 nM
same,melting point,,95 °C
CCC(CC)Cn1cc(C2(c3cccc(-c4cccnc4F)c3)N=C(N)N(C)C2=O)cn1 (stereo not shown) [Example 99],IC50,human BACE1,10 to 100 nM
same,melting point,,75 to 80 °C
"CN1C(=O)C(c2cccc(-c3cccnc3F)c2)(c2cc(C=O)n(CCF)c2)N=C1N (stereo not shown) [Example 234, 4-[2-Amino-4-[3-(2-fluoropyridin-3-yl)phenyl]-1-methyl-5-oxo-4,5-dihydro-1H-imidazol-4-yl]-1-(2-fluoroethyl)-1H-pyrrole-2-carbaldehyde]",IC50,human BACE1,10 to 100 nM
same,melting point,,218 to 221 °C
CCCCCC(=O)c1cc(C2(c3cccc(-c4cccnc4F)c3)N=C(N)N(C)C2=O)cn1CC (stereo not shown) [Example 169],IC50,human BACE1,10 to 100 nM
same,melting point,,71 to 73 °C
CCCCCOc1cccc(C2(c3cc(C(=O)CC)n(CC)c3)N=C(N)N(C)C2=O)c1 (stereo not shown) [Example 133],IC50,human BACE1,10 to 100 nM
same,melting point,,70 °C
CC(C)n1cc(C2(c3ccc(F)c(-c4cccnc4F)c3)N=C(N)N(C)C2=O)cn1 (stereo not shown) [Example 97],IC50,human BACE1,10 to 100 nM
same,melting point,,115 to 117 °C
CN1C(=O)C(c2ccc(OC(F)F)cc2)(c2cnn(Cc3ccccc3)c2)N=C1N (stereo not shown) [Example 75],IC50,human BACE1,> 1000 nM
same,melting point,,74 to 76 °C
CCC(=O)c1cc(C2(c3ccc(F)c(-c4cccnc4F)c3)N=C(N)N(C)C2=O)cn1CC(F)(F)F (stereo not shown) [Example 207],IC50,human BACE1,10 to 100 nM
same,melting point,,122 to 124 °C
"CCC(O)c1cc(C2(c3cccc(-c4cccnc4F)c3)N=C(N)N(C)C2=O)cn1CC (stereo not shown) [Example 240, 2-Amino-5-[1-ethyl-5-(1-hydroxypropyl)-1H-pyrrol-3-yl]-5-[3-(2-fluoropyridin-3-yl)phenyl]-3-methyl-3,5-dihydro-4H-imidazol-4-one]",IC50,human BACE1,110 to 1000 nM
same,melting point,,115 to 121 °C
CCC(=O)c1cc(C2(c3ccc(F)c(-c4cncnc4)c3)N=C(N)N(C)C2=O)cn1CC(F)(F)F (stereo not shown) [Example 208],IC50,human BACE1,10 to 100 nM
same,melting point,,225 to 226 °C
CCC(=O)c1cc(C2(c3cccc(-c4cccnc4F)c3)N=C(N)N(C)C2=O)cn1CCF (stereo not shown) [Example 167],IC50,human BACE1,10 to 100 nM
same,melting point,,100 °C
CN1C(=O)C(c2cccc(-c3cccnc3F)c2)(c2cnn(Cc3ccccc3)c2)N=C1N (stereo not shown) [Example 103],IC50,human BACE1,10 to 100 nM
same,melting point,,94 to 97 °C
"CN1C(=O)C(c2cccc(-c3cccnc3F)c2)(c2cnn(CC(F)(F)F)c2)N=C1N (stereo not shown) [Example 69, 2-amino-5-[3-(2-fluoropyridin-3-yl)phenyl]-3-methyl-5-[1-(2,2,2-trifluoroethyl)-1H-pyrazol-4-yl]-3,5-dihydro-4H-imidazol-4-one]",IC50,human BACE1,10 to 100 nM
same,melting point,,104 to 106 °C
"CCCn1cc(C2(c3cccc(-c4cccnc4F)c3)N=C(N)N(C)C2=O)cc1C(=O)CC (stereo not shown) [Example 149, 2-Amino-5-[3-(2-fluoropyridin-3-yl)phenyl]-3-methyl-5-(5-propionyl-1-propyl-1H-pyrrol-3-yl)-3,5-dihydro-4H-imidazol-4-one]",IC50,human BACE1,10 to 100 nM
same,melting point,,118 °C
CN1C(=O)C(c2cccc(-c3cccnc3F)c2)(c2cnn(C3CCCC3)c2)N=C1N (stereo not shown) [Example 100],IC50,human BACE1,10 to 100 nM
same,melting point,,106 to 109 °C
CN1C(=O)C(c2cccc(-c3cccnc3)c2)(c2cnn(CC(F)(F)F)c2)N=C1N (stereo not shown) [Example 88],IC50,human BACE1,110 to 1000 nM
same,melting point,,202 to 204 °C
"CCn1ccc(C2(c3cccc(Br)c3)N=C(N)N(C)C2=O)c1 (stereo not shown) [Example 50, 2-Amino-5-(3-bromophenyl)-5-(1-ethyl-1H-pyrrol-3-yl)-3-methyl-3,5-dihydro-4H-imidazol-4-one]",melting point,,138 to 140 °C
CN1C(=O)C(c2cccc(-c3cncnc3)c2)(c2cnn(C3CCCC3)c2)N=C1N (stereo not shown) [Example 105],IC50,human BACE1,10 to 100 nM
same,melting point,,112 to 115 °C
"CCn1cc(C2(c3cccc(-c4cccnc4F)c3)N=C(N)N(C)C2=O)cc1/C=N/OC (stereo not shown) (as salt: hydrochloride) [Example 241, 4-[2-Amino-4-[3-(2-fluoropyridin-3-yl)phenyl]-1-methyl-5-oxo-4,5-dihydro-1H-imidazol-4-yl]-1-ethyl-1H-pyrrole-2-carbaldehyde O-methyloxime hydrochloride]",melting point,,190 to 193 °C
"CCC(=O)c1cc(C2(c3cccc(-c4cccnc4F)c3)N=C(N)N(C)C2=O)cs1 (stereo not shown) [Example 115, 2-Amino-5-[3-(2-fluoro-pyridin-3-yl)-phenyl]-3-methyl-5-(5-propionyl-thiophen-3-yl)-3,5-dihydro-imidazol-4-one]",melting point,,98 to 112 °C
CC(C)n1cc(C2(c3ccc(F)c(-c4cncnc4)c3)N=C(N)N(C)C2=O)cn1 (stereo not shown) [Example 96],melting point,,110 to 113 °C
CCC1(c2cc(C3(c4cccc(-c5cccnc5F)c4)N=C(N)N(C)C3=O)cs2)OCCO1 (stereo not shown) [Example 113],melting point,,93 to 103 °C
"CN1C(=O)C(c2cccc(Br)c2)(c2ccn(CC(F)(F)F)c2)N=C1N (stereo not shown) [Example 51, 2-Amino-5-(3-bromophenyl)-3-methyl-5-[1-(2,2,2-trifluoroethyl)-1H-pyrrol-3-yl]-3,5-dihydro-4H-imidazol-4-one]",melting point,,74 to 76 °C
"CC(C)n1cc(C2(c3ccc(F)c(Br)c3)N=C(N)N(C)C2=O)cn1 (stereo not shown) [Example 95, 2-amino-5-(3-bromo-4-fluorophenyl)-5-(1-isopropyl-1H-pyrazol-4-yl)-3-methyl-3,5-dihydro-4H-imidazol-4-one]",melting point,,80 to 82 °C
"CN1C(=O)C(c2cccc(Br)c2)(c2cnn(CC(F)(F)F)c2)N=C1N (stereo not shown) [Example 81, 2-amino-5-(3-bromophenyl)-3-methyl-5-[1-(2,2,2-trifluoroethyl)-1H-pyrazol-4-yl]-3,5-dihydro-4H-imidazol-4-one]",melting point,,80 to 82 °C
"CC(=O)Cc1cc([C@]2(c3cccc(-c4cccnc4F)c3)N=C(N)N(C)C2=O)cn1CCCF [Example 248, (5S)-2-Amino-5-[1-(3-fluoropropyl)-5-(2-oxopropyl)-1H-pyrrol-3-yl]-5-[3-(2-fluoropyridin-3-yl)phenyl]-3-methyl-3,5-dihydro-4H-imidazol-4-one]",IC50,human BACE1,10 to 100 nM
COC(=O)c1cc([C@@]2(c3ccc(F)c(-c4cncnc4)c3)N=C(N)N(C)C2=O)cn1CC(F)(F)F [258 B],IC50,human BACE1,> 1000 nM
CCCn1cc([C@@]2(c3cccc(-c4cccnc4F)c3)N=C(N)N(C)C2=O)cc1C(=O)CC [254 B],IC50,human BACE1,> 1000 nM
CCC(=O)c1cc([C@@]2(c3cccc(-c4cccnc4F)c3)N=C(N)N(C)C2=O)cn1CC(F)F [253 B],IC50,human BACE1,> 1000 nM
CN1C(=O)C(c2ccsc2)(c2ccc(F)c(-c3cccnc3)c2)N=C1N (stereo not shown) [Example 40],IC50,human BACE1,10 to 100 nM
CCC(=O)c1cc([C@@]2(c3cccc(-c4cccnc4F)c3)N=C(N)N(C)C2=O)cn1CCF [256 B],IC50,human BACE1,> 1000 nM
CC(=O)c1cc([C@@]2(c3ccccc3)N=C(N)N(C)C2=O)cn1C [249 B],IC50,human BACE1,> 1000 nM
CCC(=O)c1cc([C@@]2(c3cccc(-c4cccnc4F)c3)N=C(N)N(C)C2=O)cn1CCCC(F)(F)F [252 B],IC50,human BACE1,> 1000 nM
CC(=O)c1cc([C@]2(c3ccccc3)N=C(N)N(C)C2=O)cn1C [249 A],IC50,human BACE1,> 1000 nM
CCC(=O)c1cc([C@]2(c3cccc(-c4cc(F)cnc4F)c3)N=C(N)N(C)C2=O)cn1CCF [242 A],IC50,human BACE1,10 to 100 nM
